Test results from ChEMBL document CHEMBL1781969, “4β-[(4-Alkyl)-1,2,3-triazol-1-yl] podophyllotoxins as anticancer compounds: design, synthesis and biological evaluation” (Eur J Med Chem, 2011).
The source made the active and inactive calls. No cut-off for these calls is given here.

Experiments:
A549 = assay: cells; conditions: Homo sapiens, A549, 48 h
Description: Cytotoxicity against human A549 cells after 48 hrs by sulforhodamine B assay

HCT-15 = assay: cells; conditions: Homo sapiens, HCT-15, 48 h
Description: Cytotoxicity against human HCT15 cells after 48 hrs by sulforhodamine B assay

HEp-2 = assay: Cytotoxicity against human Hep2 cells after 48 hrs by sulforhodamine B assay; type: functional, cell-based; conditions: HEp-2, 48 h
PC-3 = assay: cells; conditions: Homo sapiens, PC-3, 48 h
Description: Cytotoxicity against human PC3 cells after 48 hrs by sulforhodamine B assay

MCF7 [1] = assay: cells; conditions: Homo sapiens, MCF7, 48 h
Description: Cytotoxicity against human MCF7 cells after 48 hrs by sulforhodamine B assay

SF-295 = assay: Cytotoxicity against human SF295 cells after 48 hrs by sulforhodamine B assay; type: functional, cell-based; conditions: SF-295, 48 h
MCF7 [2] = assay: Cell cycle arrest in human MCF7 cells assessed as accumulation at G1/G0-phase at 5 uM after 24 hrs using propidium iodide staining by flow cytometry (reference value: 47.42%); type: functional
MCF7 [3] = assay: Cell cycle arrest in human MCF7 cells assessed as accumulation at G1/G0-phase at 1 uM after 24 hrs using propidium iodide staining by flow cytometry (reference value: 47.42%); type: functional
MCF7 [4] = assay: Induction of apoptosis in human MCF7 cells assessed as DNA ladder formation at 1 uM after 24 hrs using ethidium bromide staining by agarose gel electrophoresis; type: functional, cell-based
MCF7 [5] = assay: Cell cycle arrest in human MCF7 cells assessed as accumulation at sub-G1 phase at 1 uM after 24 hrs using propidium iodide staining by flow cytometry (reference value: 7.69%); type: functional
MCF7 [6] = assay: Cell cycle arrest in human MCF7 cells assessed as accumulation in S-phase at 1 uM after 24 hrs using propidium iodide staining by flow cytometry (reference value: 25.29%); type: functional
MCF7 [7] = assay: Cell cycle arrest in human MCF7 cells assessed as accumulation at sub-G1 phase at 5 uM after 24 hrs using propidium iodide staining by flow cytometry (reference value: 7.69%); type: functional
MCF7 [8] = assay: Cell cycle arrest in human MCF7 cells assessed as accumulation at G2/M-phase at 5 uM after 24 hrs using propidium iodide staining by flow cytometry (reference value: 19.91%); type: functional
MCF7 [9] = assay: Cell cycle arrest in human MCF7 cells assessed as accumulation in S-phase at 5 uM after 24 hrs using propidium iodide staining by flow cytometry (reference value: 25.29%); type: functional
MCF7 [10] = assay: Cell cycle arrest in human MCF7 cells assessed as accumulation at G2/M-phase at 1 uM after 24 hrs using propidium iodide staining by flow cytometry (reference value: 19.91%); type: functional

| SMILES | IC50 (A549) | IC50 (HCT-15) | IC50 (HEp-2) | IC50 (PC-3) | IC50 (MCF7 [1]) | IC50 (SF-295) | Activity (MCF7 [2]) | Activity (MCF7 [3]) | Activity (MCF7 [4]) | Activity (MCF7 [5]) | Activity (MCF7 [6]) | Activity (MCF7 [7]) | Activity (MCF7 [8]) | Activity (MCF7 [9]) | Activity (MCF7 [10]) |
| --- | --- | --- | --- | --- | --- | --- | --- | --- | --- | --- | --- | --- | --- | --- | --- |
| COc1cc([C@@H]2c3cc4c(cc3[C@@H](n3cc(CO)nn3)[C@H]3COC(=O)[C@H]23)OCO4)cc(OC)c1OC | > 100 µM | 15 µM | 0.06 µM | 0.06 µM | 0.01 µM | 2.1 µM | – | – | – | – | – | – | – | – | – |
| CCCCCc1cn([C@@H]2c3cc4c(cc3[C@@H](c3cc(OC)c(OC)c(OC)c3)[C@H]3C(=O)OC[C@@H]32)OCO4)nn1 | 39 µM | 11 µM | 7.7 µM | 8.4 µM | 9.5 µM | 24 µM | – | – | – | – | – | – | – | – | – |
| CCCCCc1cn([C@@H]2c3cc4c(cc3[C@@H](c3cc(OC)c(O)c(OC)c3)[C@H]3C(=O)OC[C@@H]32)OCO4)nn1 | 26 µM | 2.1 µM | 21 µM | 4.7 µM | 14 µM | 4.3 µM | – | – | – | – | – | – | – | – | – |
| CCCCCCCCc1cn([C@@H]2c3cc4c(cc3[C@@H](c3cc(OC)c(O)c(OC)c3)[C@H]3C(=O)OC[C@@H]32)OCO4)nn1 | > 100 µM | 13 µM | 3.8 µM | 5.1 µM | 11 µM | 5.7 µM | – | – | – | – | – | – | – | – | – |
| CCCCCCc1cn([C@@H]2c3cc4c(cc3[C@@H](c3cc(OC)c(O)c(OC)c3)[C@H]3C(=O)OC[C@@H]32)OCO4)nn1 | 26 µM | 11 µM | > 100 µM | 8.7 µM | 19 µM | 18 µM | – | – | – | – | – | – | – | – | – |
| CCCCCCc1cn([C@@H]2c3cc4c(cc3[C@@H](c3cc(OC)c(OC)c(OC)c3)[C@H]3C(=O)OC[C@@H]32)OCO4)nn1 | 35 µM | 27 µM | 10 µM | 6.4 µM | 8.6 µM | 10 µM | – | – | – | – | – | – | – | – | – |
| CCc1cn([C@@H]2c3cc4c(cc3[C@@H](c3cc(OC)c(OC)c(OC)c3)[C@H]3C(=O)OC[C@@H]32)OCO4)nn1 | 35 µM | 0.4 µM | 0.06 µM | 0.03 µM | 0.4 µM | 1.8 µM | 16.28% | 22.27% | Active | 69.34% | 5.99% | 80.1% | 1.74% | 2.84% | 1.96% |
| CCCCCCCCCCc1cn([C@@H]2c3cc4c(cc3[C@@H](c3cc(OC)c(O)c(OC)c3)[C@H]3C(=O)OC[C@@H]32)OCO4)nn1 | 30 µM | 15 µM | 19 µM | 19 µM | 11 µM | 13 µM | – | – | – | – | – | – | – | – | – |
| CCCc1cn([C@@H]2c3cc4c(cc3[C@@H](c3cc(OC)c(O)c(OC)c3)[C@H]3C(=O)OC[C@@H]32)OCO4)nn1 | 27 µM | 0.8 µM | 2.9 µM | 0.2 µM | 5.7 µM | 2.3 µM | – | – | – | – | – | – | – | – | – |
| CCCc1cn([C@@H]2c3cc4c(cc3[C@@H](c3cc(OC)c(OC)c(OC)c3)[C@H]3C(=O)OC[C@@H]32)OCO4)nn1 | 39 µM | 0.03 µM | 1.6 µM | 5.1 µM | 1.4 µM | 3.6 µM | 10.56% | 27.81% | Active | 55.65% | 16.17% | 78.16% | 1.07% | 11.44% | 3.39% |
| CCCCc1cn([C@@H]2c3cc4c(cc3[C@@H](c3cc(OC)c(OC)c(OC)c3)[C@H]3C(=O)OC[C@@H]32)OCO4)nn1 | 82 µM | 11 µM | 9.6 µM | 6.6 µM | 9.8 µM | 8.1 µM | – | – | – | – | – | – | – | – | – |
| COc1cc([C@@H]2c3cc4c(cc3[C@@H](n3cc(CO)nn3)[C@H]3COC(=O)[C@H]23)OCO4)cc(OC)c1O | 18 µM | 18 µM | 6.7 µM | 8.2 µM | 0.6 µM | 15 µM | – | – | – | – | – | – | – | – | – |
| CCCCCCCCCCc1cn([C@@H]2c3cc4c(cc3[C@@H](c3cc(OC)c(OC)c(OC)c3)[C@H]3C(=O)OC[C@@H]32)OCO4)nn1 | > 100 µM | 29 µM | 5.8 µM | 5.5 µM | 5.7 µM | 6.2 µM | – | – | – | – | – | – | – | – | – |
| CCCCCCCc1cn([C@@H]2c3cc4c(cc3[C@@H](c3cc(OC)c(O)c(OC)c3)[C@H]3C(=O)OC[C@@H]32)OCO4)nn1 | 45 µM | 15 µM | 6 µM | 5.8 µM | 13 µM | 10 µM | – | – | – | – | – | – | – | – | – |
| CCCCCCCCc1cn([C@@H]2c3cc4c(cc3[C@@H](c3cc(OC)c(OC)c(OC)c3)[C@H]3C(=O)OC[C@@H]32)OCO4)nn1 | > 100 µM | > 100 µM | 18 µM | 17 µM | 9.3 µM | 14 µM | – | – | – | – | – | – | – | – | – |
| CCCCc1cn([C@@H]2c3cc4c(cc3[C@@H](c3cc(OC)c(O)c(OC)c3)[C@H]3C(=O)OC[C@@H]32)OCO4)nn1 | 35 µM | 34 µM | 17 µM | 12 µM | 20 µM | 21 µM | – | – | – | – | – | – | – | – | – |
| CCc1cn([C@@H]2c3cc4c(cc3[C@@H](c3cc(OC)c(O)c(OC)c3)[C@H]3C(=O)OC[C@@H]32)OCO4)nn1 | 17 µM | 1.9 µM | 0.05 µM | 0.06 µM | 0.04 µM | 4.8 µM | – | – | – | – | – | – | – | – | – |
| CCCCCCCc1cn([C@@H]2c3cc4c(cc3[C@@H](c3cc(OC)c(OC)c(OC)c3)[C@H]3C(=O)OC[C@@H]32)OCO4)nn1 | 36 µM | 45 µM | 9.8 µM | 23 µM | 6.4 µM | 25 µM | – | – | – | – | – | – | – | – | – |
| COc1cc([C@@H]2c3cc4c(cc3[C@@H](O[C@@H]3O[C@@H]5CO[C@@H](C)O[C@H]5[C@H](O)[C@H]3O)[C@H]3COC(=O)[C@H]23)OCO4)cc(OC)c1O [ETOPOSIDE] | – | 7.15 µM | – | – | 19 µM | 13.5 µM | – | – | – | – | – | – | – | – | – |
